Results reported in patent US10047051B2, “Substituted pyridines and method of use” (AbbVie S.á{acute over (.)}r.l., priority 2015, dated 2018).

Key:
CFTR ΔF508 mutant = molecular target: T1, CFTR ΔF508 mutant (Homo sapiens, UniProt P13569, DEL508-508); assay: YFP-halide influx assay for the CFTR-ΔF508 mutation (CFBE41o- cells); format: cell-based; conditions: forskolin 10.67 μM; for EC50: from (1−F/F0) vs concentration plot
T1 construct: expressed in transfected cells; host or cells: CFBE41o- cells, adenoviral transduction
T1 sequence (P13569 with tags, fused parts or gaps DEL508-508): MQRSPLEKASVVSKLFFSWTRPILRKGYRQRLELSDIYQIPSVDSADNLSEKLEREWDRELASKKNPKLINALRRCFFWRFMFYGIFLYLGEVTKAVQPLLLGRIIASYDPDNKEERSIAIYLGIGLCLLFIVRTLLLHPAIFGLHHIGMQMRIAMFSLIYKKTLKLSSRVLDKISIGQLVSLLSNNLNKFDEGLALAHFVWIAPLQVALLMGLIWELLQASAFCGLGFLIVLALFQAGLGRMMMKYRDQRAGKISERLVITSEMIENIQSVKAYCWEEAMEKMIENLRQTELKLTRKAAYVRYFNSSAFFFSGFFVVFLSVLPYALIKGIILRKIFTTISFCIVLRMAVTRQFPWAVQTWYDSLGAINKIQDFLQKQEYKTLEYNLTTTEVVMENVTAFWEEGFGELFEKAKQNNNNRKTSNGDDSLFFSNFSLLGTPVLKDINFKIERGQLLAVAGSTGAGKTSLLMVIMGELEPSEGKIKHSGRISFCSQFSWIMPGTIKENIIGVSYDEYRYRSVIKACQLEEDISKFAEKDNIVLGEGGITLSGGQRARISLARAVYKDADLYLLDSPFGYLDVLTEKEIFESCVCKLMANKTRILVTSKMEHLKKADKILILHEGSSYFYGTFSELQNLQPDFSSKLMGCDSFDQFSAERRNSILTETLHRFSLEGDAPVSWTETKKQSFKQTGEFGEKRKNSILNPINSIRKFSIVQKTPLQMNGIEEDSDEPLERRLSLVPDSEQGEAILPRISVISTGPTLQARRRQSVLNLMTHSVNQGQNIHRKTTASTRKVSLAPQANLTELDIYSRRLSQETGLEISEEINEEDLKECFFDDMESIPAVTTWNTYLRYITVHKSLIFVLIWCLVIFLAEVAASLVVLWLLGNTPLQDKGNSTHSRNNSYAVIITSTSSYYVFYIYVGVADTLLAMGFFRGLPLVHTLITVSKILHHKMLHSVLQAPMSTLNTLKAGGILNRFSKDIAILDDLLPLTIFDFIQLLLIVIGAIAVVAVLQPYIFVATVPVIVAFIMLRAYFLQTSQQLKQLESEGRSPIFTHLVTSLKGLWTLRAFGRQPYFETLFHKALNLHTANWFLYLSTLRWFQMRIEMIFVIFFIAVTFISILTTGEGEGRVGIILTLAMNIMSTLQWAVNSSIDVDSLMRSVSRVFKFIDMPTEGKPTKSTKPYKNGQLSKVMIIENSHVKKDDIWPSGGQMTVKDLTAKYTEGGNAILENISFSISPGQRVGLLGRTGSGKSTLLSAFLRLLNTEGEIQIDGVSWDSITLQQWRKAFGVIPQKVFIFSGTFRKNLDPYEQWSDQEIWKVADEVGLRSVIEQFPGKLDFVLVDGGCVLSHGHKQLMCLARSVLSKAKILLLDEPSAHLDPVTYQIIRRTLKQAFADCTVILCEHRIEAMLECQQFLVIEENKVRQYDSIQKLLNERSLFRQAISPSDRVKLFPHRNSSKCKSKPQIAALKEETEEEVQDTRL
Procedure, shortened: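 EC50 derived from plotting 1−F/F0 (fluorescence 36 s after iodide injection over pre-injection value) against compound concentration. Cells: CFBE41o- transduced with ΔF508-CFTR and YFP quench reporter, corrected 24 h at 27° C or by a CFTR modulator at 37° C.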

CFTR G551D mutant = molecular target: T2, CFTR G551D mutant (Homo sapiens, UniProt P13569, G551D); assay: YFP-halide influx assay for the CFTR-G551D mutation (HEK293 cells); format: cell-based; conditions: forskolin 10.67 μM
T2 construct: expressed in transfected cells; host or cells: HEK293 cells, reverse transfection with plasmids
T2 sequence (P13569 whole entry G551D): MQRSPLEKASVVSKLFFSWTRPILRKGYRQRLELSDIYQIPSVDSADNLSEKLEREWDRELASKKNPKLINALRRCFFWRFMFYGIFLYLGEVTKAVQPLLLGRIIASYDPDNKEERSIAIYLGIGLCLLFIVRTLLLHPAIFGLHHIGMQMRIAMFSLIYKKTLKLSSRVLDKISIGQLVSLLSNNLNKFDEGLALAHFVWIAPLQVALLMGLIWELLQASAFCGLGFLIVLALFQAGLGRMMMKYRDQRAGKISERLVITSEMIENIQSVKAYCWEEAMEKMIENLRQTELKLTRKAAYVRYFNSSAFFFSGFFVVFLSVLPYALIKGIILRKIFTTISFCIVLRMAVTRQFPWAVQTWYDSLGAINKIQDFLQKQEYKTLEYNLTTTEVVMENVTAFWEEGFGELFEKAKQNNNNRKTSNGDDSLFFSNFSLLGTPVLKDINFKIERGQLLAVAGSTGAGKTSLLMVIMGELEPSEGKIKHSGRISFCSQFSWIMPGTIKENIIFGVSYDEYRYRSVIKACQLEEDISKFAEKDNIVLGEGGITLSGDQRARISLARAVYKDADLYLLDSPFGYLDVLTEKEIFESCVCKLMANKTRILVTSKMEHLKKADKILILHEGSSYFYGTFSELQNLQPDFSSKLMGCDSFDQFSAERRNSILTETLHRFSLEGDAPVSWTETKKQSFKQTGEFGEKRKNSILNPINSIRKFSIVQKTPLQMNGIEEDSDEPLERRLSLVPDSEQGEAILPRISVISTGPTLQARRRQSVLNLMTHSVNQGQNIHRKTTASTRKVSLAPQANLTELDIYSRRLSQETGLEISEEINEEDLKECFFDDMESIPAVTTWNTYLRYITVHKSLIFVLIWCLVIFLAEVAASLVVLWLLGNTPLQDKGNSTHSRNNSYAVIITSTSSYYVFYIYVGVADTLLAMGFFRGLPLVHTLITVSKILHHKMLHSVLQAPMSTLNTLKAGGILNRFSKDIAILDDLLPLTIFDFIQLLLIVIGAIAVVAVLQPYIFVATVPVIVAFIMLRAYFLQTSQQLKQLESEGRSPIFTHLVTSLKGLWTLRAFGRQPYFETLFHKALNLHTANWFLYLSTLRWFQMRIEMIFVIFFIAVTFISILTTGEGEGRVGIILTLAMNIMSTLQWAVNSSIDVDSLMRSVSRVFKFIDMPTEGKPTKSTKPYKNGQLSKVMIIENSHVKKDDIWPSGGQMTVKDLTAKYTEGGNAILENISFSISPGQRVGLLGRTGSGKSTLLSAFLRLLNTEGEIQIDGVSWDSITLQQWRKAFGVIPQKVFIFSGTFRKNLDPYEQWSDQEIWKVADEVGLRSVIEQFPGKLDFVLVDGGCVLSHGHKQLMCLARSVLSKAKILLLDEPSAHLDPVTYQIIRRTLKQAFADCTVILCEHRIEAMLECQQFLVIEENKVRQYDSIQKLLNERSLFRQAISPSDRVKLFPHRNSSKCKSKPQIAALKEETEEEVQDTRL
Procedure, shortened: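 Channel opening read as I⁻-driven quenching of a YFP H148Q/I152L/F47L reporter over 7 s post-injection, expressed as 1−F/F0 and fitted against concentration for EC50. Cells were HEK293 co-transfected at seeding with G551D CFTR plus reporter, then grown 24 h at 37 °C, 5% CO2.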

SMILES | % Activation (CFTR ΔF508 mutant) [%] | EC50 (CFTR ΔF508 mutant) [µM] | % Activation (CFTR G551D mutant) [%] | EC50 (CFTR G551D mutant) [µM]
Nc1cc(S(=O)(=O)c2ccc(OC(F)(F)F)cc2F)cnc1C(=O)NC[C@@H](O)C(F)(F)F [Compound 117, 3-amino-5-{[2-fluoro-4-(trifluoromethoxy)phenyl]sulfonyl}-N-[(2R)-3,3,3-trifluoro-2-hydroxypropyl]pyridine-2-carboxamide] | 107.9 | 0.0017 | 79.8 | 0.218
Nc1cc(S(=O)(=O)c2ccc(OC(F)(F)F)cc2)cnc1C(=O)NCC1CCOCC1 [Compound 129, 3-amino-N-(tetrahydro-2H-pyran-4-ylmethyl)-5-{[4-(trifluoromethoxy)phenyl]sulfonyl}pyridine-2-carboxamide] | 74.9 | 0.18 | 25.9 | > 10
Nc1cc(S(=O)(=O)c2ccccc2)cnc1C(=O)NCC(O)C(F)(F)F (stereo not drawn) [Compound 244, 3-amino-5-(phenylsulfonyl)-N-(3,3,3-trifluoro-2-hydroxypropyl)pyridine-2-carboxamide] | 102.5 | 0.0085 | 65.9 | 0.564
Nc1cc(S(=O)(=O)NC[C@H]2CCOC2)cnc1C(=O)NCC(O)C(F)(F)F (stereo partly drawn) [Compound 200, 3-amino-5-{[(3R)-tetrahydrofuran-3-ylmethyl]sulfamoyl}-N-(3,3,3-trifluoro-2-hydroxypropyl)pyridine-2-carboxamide] | 116.7 | 0.0429 | 59.5 | 2.34
CC1CC(C)CN(S(=O)(=O)c2cnc(C(=O)NCC(O)C(F)(F)F)c(N)c2)C1 (stereo not drawn) [Compound 185, 3-amino-5-[(3,5-dimethylpiperidin-1-yl)sulfonyl]-N-(3,3,3-trifluoro-2-hydroxypropyl)pyridine-2-carboxamide] | 111.3 | 0.0029 | 69.4 | 1.12
CN1CCC(O)(CNC(=O)c2ncc(S(=O)(=O)c3ccc(OC(F)(F)F)cc3)cc2N)CC1 [Compound 5, 3-amino-N-[(4-hydroxy-1-methylpiperidin-4-yl)methyl]-5-{[4-(trifluoromethoxy)phenyl]sulfonyl}pyridine-2-carboxamide] | 14.8 | > 2 | 1.7 | > 10
CC(C)(O)C1CN(C(=O)c2ncc(S(=O)(=O)c3ccc(C(F)(F)F)cc3F)cc2N)C1 [Compound 178, (3-amino-5-{[2-fluoro-4-(trifluoromethyl)phenyl]sulfonyl}pyridin-2-yl)[3-(2-hydroxypropan-2-yl)azetidin-1-yl]methanone] | 109.7 | 0.0056 | 75.8 | 0.322
CC(C)C(C)NC(=O)c1ncc(S(=O)(=O)c2ccc(C(F)(F)F)cc2)cc1N (stereo not drawn) [Compound 188, 3-amino-N-(3-methylbutan-2-yl)-5-{[4-(trifluoromethyl)phenyl]sulfonyl}pyridine-2-carboxamide] | 88.8 | 0.378 | 13.4 | > 10
Nc1cc(S(=O)(=O)c2ccc(C(F)(F)F)cc2F)cnc1C(=O)NCC(O)COCC(F)(F)F (stereo not drawn) [Compound 213, 3-amino-5-{[2-fluoro-4-(trifluoromethyl)phenyl]sulfonyl}-N-[2-hydroxy-3-(2,2,2-trifluoroethoxy)propyl]pyridine-2-carboxamide] | 115.3 | 0.006 | 71.0 | 0.414
Nc1cc(S(=O)(=O)c2ccc(C(F)(F)F)cc2)cnc1C(=O)N1CC(OC(F)F)C1 [Compound 158, (3-amino-5-{[4-(trifluoromethyl)phenyl]sulfonyl}pyridin-2-yl)[3-(difluoromethoxy)azetidin-1-yl]methanone] | 114.3 | 0.0316 | 29.2 | > 10
CN(Cc1ccc(C(F)(F)F)cc1)S(=O)(=O)c1cnc(C(=O)NCC(O)C(F)(F)F)c(N)c1 (stereo not drawn) [Compound 211, 3-amino-5-{methyl[4-(trifluoromethyl)benzyl]sulfamoyl}-N-(3,3,3-trifluoro-2-hydroxypropyl)pyridine-2-carboxamide] | 98.4 | 0.0247 | 24.0 | –
COc1nc(C(=O)NC[C@H](C)O)c(N)cc1S(=O)(=O)c1ccc(OC(F)(F)F)cc1 [Compound 280, 3-amino-N-[(2S)-2-hydroxypropyl]-6-methoxy-5-{[4-(trifluoromethoxy)phenyl]sulfonyl}pyridine-2-carboxamide] | 111.0 | 0.0029 | 57.6 | 1.16
Nc1cc(S(=O)(=O)c2ccc(C(F)(F)F)cc2F)cnc1C(=O)N[C@@H]1COCC[C@@H]1O (racemic) [Compound 218, rac-3-amino-5-{[2-fluoro-4-(trifluoromethyl)phenyl]sulfonyl}-N-[(3R,4S)-4-hydroxytetrahydro-2H-pyran-3-yl]pyridine-2-carboxamide] | 105.8 | 0.0444 | 43.8 | 1.52
COCC(O)CCNC(=O)c1ncc(S(=O)(=O)c2ccc(OC(F)(F)F)cc2)cc1N (stereo not drawn) [Compound 54, 3-amino-N-(3-hydroxy-4-methoxybutyl)-5-{[4-(trifluoromethoxy)phenyl]sulfonyl}pyridine-2-carboxamide] | 89.2 | 0.0729 | 62.6 | 1.66
CC1CCN(S(=O)(=O)c2cnc(C(=O)NCC(O)C(F)(F)F)c(N)c2)CC1 (stereo not drawn) [Compound 184, 3-amino-5-[(4-methylpiperidin-1-yl)sulfonyl]-N-(3,3,3-trifluoro-2-hydroxypropyl)pyridine-2-carboxamide] | 111.0 | 0.0069 | 66.4 | 0.392
Nc1cc(S(=O)(=O)c2ccc(OC(F)(F)F)cc2)cnc1C(=O)NC[C@H](O)COCC1CC1 [Compound 242, 3-amino-N-[(2S)-3-(cyclopropylmethoxy)-2-hydroxypropyl]-5-{[4-(trifluoromethoxy)phenyl]sulfonyl}pyridine-2-carboxamide] | 103.0 | 0.0254 | 71.5 | 0.841
CC(C)(O)CCNC(=O)c1ncc(S(=O)(=O)c2ccc(OC(F)(F)F)cc2)cc1N [Compound 51, 3-amino-N-(3-hydroxy-3-methylbutyl)-5-{[4-(trifluoromethoxy)phenyl]sulfonyl}pyridine-2-carboxamide] | 96.8 | 0.0302 | 51.2 | 1.13
COCC(O)CNC(=O)c1ncc(S(=O)(=O)N2CCC[C@@H]2C)cc1N (stereo partly drawn) [Compound 276, 3-amino-N-(2-hydroxy-3-methoxypropyl)-5-{[(2S)-2-methylpyrrolidin-1-yl]sulfonyl}pyridine-2-carboxamide] | 108.0 | 0.109 | 13.7 | > 10
Nc1cc(S(=O)(=O)c2ccc(OC(F)(F)F)cc2)cnc1C(=O)NCC1COCCO1 (stereo not drawn) [Compound 8, 3-amino-N-(1,4-dioxan-2-ylmethyl)-5-{[4-(trifluoromethoxy)phenyl]sulfonyl}pyridine-2-carboxamide] | 109.5 | 0.0721 | 67.5 | 1.2
Nc1cc(S(=O)(=O)c2ccc(C(F)(F)F)cc2)cnc1C(=O)N[C@H]1CCC[C@@H]1O [Compound 215, 3-amino-N-[(1S,2S)-2-hydroxycyclopentyl]-5-{[4-(trifluoromethyl)phenyl]sulfonyl}pyridine-2-carboxamide] | 109.8 | 0.0089 | 57.6 | 0.389
CC(C)C(CO)NC(=O)c1ncc(S(=O)(=O)c2ccc(OC(F)(F)F)cc2)cc1N (stereo not drawn) [Compound 13, 3-amino-N-(1-hydroxy-3-methylbutan-2-yl)-5-{[4-(trifluoromethoxy)phenyl]sulfonyl}pyridine-2-carboxamide] | 101.0 | 0.0399 | 21.3 | > 10
Nc1cc(S(=O)(=O)N2CCCC(F)(F)C2)cnc1C(=O)NCC(O)C(F)(F)F (stereo not drawn) [Compound 183, 3-amino-5-[(3,3-difluoropiperidin-1-yl)sulfonyl]-N-(3,3,3-trifluoro-2-hydroxypropyl)pyridine-2-carboxamide] | 103.7 | 0.0208 | 42.0 | 1.13
Nc1cc(S(=O)(=O)c2ccccc2)cnc1C(=O)N1CC(O)(C(F)(F)F)C1 [Compound 255, [3-amino-5-(phenyl sulfonyl)pyridin-2-yl][3-hydroxy-3-(trifluoromethyl)azetidin-1-yl]methanone] | 104.2 | 0.0013 | 41.8 | 5.77
COCCNC(=O)c1ncc(S(=O)(=O)c2ccc(C(F)(F)F)cc2)cc1N [Compound 202, 3-amino-N-(2-methoxyethyl)-5-{[4-(trifluoromethyl)phenyl]sulfonyl}pyridine-2-carboxamide] | 97.6 | 0.0455 | 45.1 | 1.6
Nc1cc(S(=O)(=O)c2ccc(C(F)(F)F)cc2)cnc1C(=O)NC1(CO)CC1 [Compound 292, 3-amino-N-[1-(hydroxymethyl)cyclopropyl]-5-{[4-(trifluoromethyl)phenyl]sulfonyl}pyridine-2-carboxamide] | 72.4 | 0.263 | 28.5 | > 10
